Assay results reported in article PMC6440584 (Eurosurveillance, 2019).

Columns and labels:
[1] = tested on: influenza A(H3N2) virus A/YOKOHAMA/88/2019 (PA I38T); assay type: cell-based
[2] = tested on: influenza A(H3N2) virus A/YOKOHAMA/87/2019 (PA I38T); assay type: cell-based
[3] = biological target: neuraminidase (NA) of influenza A(H3N2) virus A/YOKOHAMA/88/2019 (Influenza A virus, UniProt A0A193ACB1); assay type: biochemical
[4] = biological target: neuraminidase (NA) of influenza A(H3N2) virus A/YOKOHAMA/87/2019 (Influenza A virus, UniProt A0A193ACB1); assay type: biochemical

Row | SMILES | IC50 [1] | fold higher IC50 compared with the median IC50 of A(H3N2) viruses of the 2018/19 season [1] | IC50 [2] | fold higher IC50 compared with the median IC50 of A(H3N2) viruses of the 2018/19 season [2] | IC50 [3] | IC50 [4]
2 | CCC(CC)[C@H](NC(C)=O)[C@@H]1[C@H](O)[C@@H](C(=O)O)C[C@H]1N=C(N)N [Peramivir, peramivir] | – | – | – | – | 0.13 nM | 0.16 nM
